Values quoted from earlier work, collected in patent publication US6673767B1, “Gel composition and methods” (Alza Corporation, priority 1996, dated 2004).

Conditions: for Water Miscibility: solvent in water (Merck)

SMILES | Water Miscibility | reported solubility in water (solvent in water)
O=C(OCc1ccccc1)c1ccccc1 [Benzyl Benzoate, benzyl benzoate] | insol. in water (Merck) | –
CN1CCCC1=O [NMP, N-methyl-2-pyrrolidone] | misc. with water (Merck) | –
CC(=O)OCC(COC(C)=O)OC(C)=O [Triacetin, triacetin] | 7% sol. in water (Merck) | 7.17 grams in 100 ml of water
